logP data for 127 compounds are collected here from the SangsterLogP compilation.

By logP is commonly meant the decadic logarithm of the partition coefficient of the neutral form, usually between octanol and water. Read a low logP as a more hydrophilic compound.

In turn, `O=C(N[C@H]1C[C@@H](C(F)F)C1)c1ccccc1` registered a logP of 1.98.

`O=C(NC1CC2(CC(F)C2)C1)c1ccccc1` (configuration not stated) displayed a logP of 2.39.

For `C[C@@H]1C[C@@H]1NC(=O)c1ccccc1`, the logP stood at 1.64.

As for `O=C(Nc1ccccc1)[C@H]1C[C@@H](C(F)F)C1`, the logP worked out at 2.23. The value for `O=C(Nc1ccccc1)[C@@H]1CC[C@H]1C(F)F` was 2.22. The value for `O=C(c1ccccc1)N1CC2COCC(C1)C2(F)F` was 1.19; that for `O=C(NCCCF)c1ccccc1` was 1.28.

Consider `O=C(NC1C(F)(F)C12CC2)c1ccccc1` (configuration not stated), for which the logP came out at 2.14. As for `O=C(Nc1ccccc1)C1CC(F)(F)C1`, the figure is 2.26; as for `CC12CCC(CC1)CN2C(=O)c1ccccc1`, 2.66. As for `O=C(c1ccccc1)N1CCCC(C(F)F)C1` (configuration not stated), the figure is 1.73; as for `O=C(Nc1ccccc1)C1CCCC(F)(F)CC1` (configuration not stated), 2.95.

With `O=C(c1ccccc1)N1CC2CCC1(C(F)(F)F)C2` (configuration not stated), the logP was found to be 2.2. As for `O=C(c1ccccc1)N1CCC(F)(F)C1`, the figure is 1.35; as for `O=C(c1ccccc1)N1CC2CCC(C1)C2(F)F`, 2.09.

As for `CCC(F)(F)CNC(=O)c1ccccc1`, the logP worked out at 2.04. As for `CC(F)(F)CCC(=O)Nc1ccccc1`, the figure is 2.12. Regarding `O=C(NC1CCCCCC1(F)F)c1ccccc1` (configuration not stated), the log partition coefficient (logP) came out at 2.56. The value for `O=C(NC1CCCCC(F)(F)C1)c1ccccc1` (configuration not stated) was 2.57. As for `O=C(c1ccccc1)N1CCC(C(F)(F)F)C1` (configuration not stated), the figure is 1.7; as for `O=C(c1ccccc1)N1CC(F)(F)C1`, 1.34. As for `O=C(c1ccccc1)N1CC2CC1C2`, the figure is 1.47. The compound `O=C(c1ccccc1)N1CC[C@@H](F)[C@H](F)C1` came in with a logP of 1.26. As for `O=C(NC1CCC1)c1ccccc1`, the figure is 1.95; as for `O=C(Nc1ccccc1)C1CC2(C1)CC(F)(F)C2`, 2.93. Regarding `O=C(Nc1ccccc1)[C@@H]1CC[C@H]1F`, the logP was found to be 2.04. The value for `O=C(Nc1ccccc1)[C@H]1C[C@H]1C(F)(F)F` was 2.12; that for `O=C(Nc1ccccc1)C1(C(F)F)CCC1` was 2.19; that for `O=C(Nc1ccccc1)C12CC(CO1)C2` was 1.54. As for `CCC(F)(F)CC(=O)Nc1ccccc1`, the figure is 2.26. As for `O=C(c1ccccc1)N1CC2CC1(C(F)(F)F)C2`, the figure is 1.93; as for `O=C(Nc1ccccc1)[C@H]1C[C@H](C(F)F)C1`, 2.39; as for `O=C(NC1CCCC(F)(F)CC1)c1ccccc1` (configuration not stated), 2.5. With `O=C(Nc1ccccc1)C1CCCCC(F)(F)C1` (configuration not stated), the logP came out at 3.03. The value for `O=C(c1ccccc1)N1CCC1C(F)(F)F` (configuration not stated) was 1.75; that for `O=C(Nc1ccccc1)[C@@H]1CC[C@H]1C(F)(F)F` was 2.88; that for `O=C(N[C@H]1C[C@H](CF)C1)c1ccccc1` was 1.78. On to `O=C(c1ccccc1)N1CCCCC1C(F)(F)F` (configuration not stated), for which the logP amounted to 2.54. `O=C(Nc1ccccc1)C1CCC(F)(F)C1` (configuration not stated) gave a logP of 2.5.

Compound `O=C(NC1(CF)CCC1)c1ccccc1` came in with a logP of 2.03. As for `O=C(N[C@@H]1C[C@@H]2C[C@@H]2C1)c1ccccc1`, the figure is 2.3. On to `O=C(c1ccccc1)N1C[C@@H](F)[C@H](F)C1`, for which the logP turned out to be 1.08.

In turn, `O=C(Nc1ccccc1)[C@@H]1C[C@@H]2C[C@@H]2C1` came in with a lipophilicity (logP) of 2.92.

The compound `O=C(NC1CC12CC2(F)F)c1ccccc1` (configuration not stated) yielded a logP of 2.04. Turning to `O=C(c1ccccc1)N1CC2COCC(C2)C1`, the logP was 0.84. The value for `O=C(Nc1ccccc1)[C@H]1C[C@@H](CF)C1` was 1.96; that for `O=C(c1ccccc1)N1CC2CCCC1(C(F)(F)F)C2` (configuration not stated) was 2.67. As for `O=C(NC1CCC1(F)F)c1ccccc1` (configuration not stated), the figure is 1.7.

For the compound `CC(F)(F)CCNC(=O)c1ccccc1`, the logP stood at 1.81. `O=C(Nc1ccccc1)[C@@H]1C[C@H]1C(F)(F)F` yielded a logP of 2.98. As for `O=C(c1ccccc1)N1C[C@@H](F)C[C@H](F)C1`, the logP turned out to be 1.35. As for `O=C(c1ccccc1)N1CC(C(F)(F)F)C1`, the figure is 1.66; as for `O=C(N[C@@H]1C[C@@H]1CF)c1ccccc1`, 1.12. As for `O=C(N[C@H]1C[C@@H](C(F)(F)F)C1)c1ccccc1`, the figure is 2.62; as for `O=C(c1ccccc1)N1CCC(F)C1` (configuration not stated), 0.91; as for `O=C(NC1CC1)c1ccccc1`, 1.29. The value for `O=C(c1ccccc1)N1CCCC1` was 1.19. `O=C(Nc1ccccc1)[C@@H]1CC[C@H]1CF` gave a logP of 2.11. As for `CCCCNC(=O)c1ccccc1`, the figure is 2.23.

In turn, `O=C(Nc1ccccc1)[C@@H]1C[C@H]1C(F)F` returned a logP of 2.28.

Regarding `O=C(Nc1ccccc1)[C@@H]1C[C@@H]1CF`, the logP came out at 1.88. As for `O=C(Nc1ccccc1)C12CC(C(F)F)(CO1)C2`, the figure is 1.93. As for `O=C(c1ccccc1)N1CCCC(F)C1` (configuration not stated), the figure is 1.26.

`O=C(Nc1ccccc1)[C@H]1C[C@@H]2C[C@@H]2C1` returned a logP of 2.87. As to `O=C(c1ccccc1)N1CCC1C(F)F` (configuration not stated), the logP worked out at 1.51.

The compound `O=C(NCCF)c1ccccc1` gave a logP of 1.07. The value for `O=C(Nc1ccccc1)C1CC12CC2` (configuration not stated) was 2.35. As for `O=C(NCCC(F)F)c1ccccc1`, the figure is 1.49; as for `O=C(c1ccccc1)N1CC2CS(=O)(=O)CC(C1)C2(F)F`, 0.2.

For `CNC(=O)c1ccccc1`, the logP stood at 1.03. `O=C(Nc1ccccc1)C1CC12CC2(F)F` (configuration not stated) returned a logP of 2.66. The value for `O=C(Nc1ccccc1)[C@H]1C[C@@H]2[C@H](C1)C2(F)F` was 2.37. The compound `O=C(NCCC(F)(F)F)c1ccccc1` gave a logP of 1.93.

In turn, `C[C@@H]1C[C@@H]1C(=O)Nc1ccccc1` returned a logP of 2.31.

For the compound `O=C(N[C@H]1C[C@H](C(F)F)C1)c1ccccc1`, the logP stood at 1.97. In turn, `O=C(Nc1ccccc1)C1CC2(CC(F)C2)C1` (configuration not stated) yielded a logP of 2.69.

In the case of `O=C(N[C@@H]1C[C@H]1C(F)(F)F)c1ccccc1`, the logP was 1.79.

`O=C(Nc1ccccc1)[C@H]1C[C@@H](F)C1` returned a logP of 1.86.

As for `O=C(Nc1ccccc1)[C@@H]1C[C@@H]2[C@H](C1)C2(F)F`, the logP was determined as 2.88. Turning to `O=C(Nc1ccccc1)C1CCCC1`, the logP was found to be 2.68.

As to `C[C@@H]1C[C@H]1C(=O)Nc1ccccc1`, the logP was determined as 2.42.

`CC12CC(CN1C(=O)c1ccccc1)C2` yielded a logP of 1.75. As for `O=C(c1ccccc1)N1CCC1`, the figure is 1.13; as for `O=C(Nc1ccccc1)C1C(F)(F)C12CC2` (configuration not stated), 2.42; as for `O=C(Nc1ccccc1)C1CC1(F)F` (configuration not stated), 2.07. `O=C(Nc1ccccc1)C1CCC(F)(F)CC1` showed a logP of 2.63.

The compound `O=C(Nc1ccccc1)C1CC1` displayed a logP of 1.92. The value for `O=C(Nc1ccccc1)[C@H]1C[C@H](C(F)(F)F)C1` was 3.02; that for `O=C(N[C@@H]1C[C@H]1CF)c1ccccc1` was 1.41; that for `O=C(Nc1ccccc1)C1CCC1` was 2.26. As for `CC12CCCC(CN1C(=O)c1ccccc1)C2` (configuration not stated), the figure is 2.41. The compound `O=C(Nc1ccccc1)C1(CF)CCC1` displayed a logP of 1.88. The value for `O=C(c1ccccc1)N1CC2CCCC(C2)C1` was 2.36; that for `O=C(Nc1ccccc1)C1CCCCC1(F)F` (configuration not stated) was 2.5; that for `O=C(c1ccccc1)N1CC2CCCC(C1)C2(F)F` was 2.18.

With `O=C(c1ccccc1)N1CCCCC1`, the logP was found to be 1.39. The compound `O=C(N[C@@H]1CC[C@H]1C(F)(F)F)c1ccccc1` came in with a logP of 2.54. The value for `O=C(Nc1ccccc1)C1CCCC(F)(F)C1` (configuration not stated) was 2.72. Regarding `O=C(c1ccccc1)N1CCCC(F)(F)C1`, the logP is 1.65. Consider `O=C(NC1CCCC1(F)F)c1ccccc1` (configuration not stated), for which the logP came out at 1.87. The value for `O=C(c1ccccc1)N1CCC(C(F)F)CC1` was 1.67; that for `O=C(c1ccccc1)N1CCC(C(F)F)C1` (configuration not stated) was 1.4. The value for `O=C(N[C@@H]1C[C@@H]2[C@H](C1)C2(F)F)c1ccccc1` was 2.23; that for `O=C(c1ccccc1)N1CCCCC1CF` (configuration not stated) was 2; that for `O=C(N[C@@H]1CC[C@H]1F)c1ccccc1` was 1.64. `O=C(NCC(F)(F)F)c1ccccc1` showed a logP of 1.76.

Compound `O=C(NCCCCF)c1ccccc1` had a logP of 1.56. The value for `O=C(Nc1ccccc1)C1CCCCCC1(F)F` (configuration not stated) was 2.9; that for `O=C(Nc1ccccc1)C1CCC1(F)F` (configuration not stated) was 2.03; that for `O=C(c1ccccc1)N1CCCC1C(F)F` (configuration not stated) was 1.88. The value for `O=C(NC1(C(F)(F)F)CCC1)c1ccccc1` was 2.51; that for `O=C(c1ccccc1)N1CC(F)C1` was 0.94. Consider `O=C(NC1(C(F)F)CCC1)c1ccccc1`, for which the logP amounted to 2.48. As for `O=C(c1ccccc1)N1CCC1CF` (configuration not stated), the figure is 1.4. The value for `O=C(NC1CCCC1)c1ccccc1` was 2.23. As for `O=C(c1ccccc1)N1CC2CCCC1C2` (configuration not stated), the figure is 1.88; as for `O=C(NC1CC12CC2)c1ccccc1` (configuration not stated), 2.08. For the compound `O=C(c1ccccc1)N1CCC(CF)CC1`, the logP came to 1.45. As for `O=C(c1ccccc1)N1CC2CCC1(C(F)(F)F)CC2`, the figure is 2.51. Compound `O=C(NC1CCCCC1)c1ccccc1` showed a logP of 2.72.

For `O=C(N[C@H]1C[C@H]1C(F)F)c1ccccc1`, the logP came to 1.36. In the case of `O=C(c1ccccc1)N1CCCC(CF)C1` (configuration not stated), the lipophilicity (logP) is 1.52. The value for `O=C(NC1CC(F)(F)C1)c1ccccc1` was 1.94; that for `O=C(NC1CC2(CCC2)C1)c1ccccc1` was 3.26.

In the case of `O=C(N[C@H]1C[C@@H](F)C1)c1ccccc1`, the logP is 1.67. `O=C(N[C@@H]1CC[C@H]1CF)c1ccccc1` had a log partition coefficient (logP) of 1.85. Consider `O=C(Nc1ccccc1)[C@H]1C[C@H](CF)C1`, for which the log partition coefficient (logP) came to 2.14.
